Data set [1] has as its target T1, ADRA1B (Alpha 1B adrenergic receptor) (Homo sapiens, UniProt P35368).
T1 sequence (P35368 1-520): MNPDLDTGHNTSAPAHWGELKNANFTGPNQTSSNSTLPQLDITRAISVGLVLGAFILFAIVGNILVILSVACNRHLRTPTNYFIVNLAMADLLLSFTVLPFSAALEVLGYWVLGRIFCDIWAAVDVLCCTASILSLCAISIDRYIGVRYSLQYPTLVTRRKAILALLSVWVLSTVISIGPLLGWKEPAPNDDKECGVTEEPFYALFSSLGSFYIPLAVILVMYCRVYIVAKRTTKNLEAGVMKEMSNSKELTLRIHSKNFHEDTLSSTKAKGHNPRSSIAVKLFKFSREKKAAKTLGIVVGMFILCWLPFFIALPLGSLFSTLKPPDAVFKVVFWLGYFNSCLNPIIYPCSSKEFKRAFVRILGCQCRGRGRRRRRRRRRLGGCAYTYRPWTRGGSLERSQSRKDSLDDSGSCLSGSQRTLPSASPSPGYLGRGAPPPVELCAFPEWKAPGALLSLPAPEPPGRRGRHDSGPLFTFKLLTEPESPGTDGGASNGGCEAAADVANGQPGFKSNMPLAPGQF
Briefly: DiscoverX GPCR Max Panel screen. It counts as cell-based. As to conditions: VDM-001 at 30 μM; Assay Mode Antagonist. How it is done: (§1) In Example 2, DiscoverX platform screening (GPCR Max Panel) of VDM-001(composition of formula I)) at a concentration of 30 μM (the IC50 for VDM-001 from the GTPgS studies) was conducted to confirm the data from the GTPgS study and to determine broad selectivity of over 336 protein targets. MOR antagonism was confirmed (87% activity) along with other targets with >50%. Overall 13 proteins were engaged by VDM-001 with greater than 50% activity.

Data set [2] deals with T2, ADRA2B (Alpha 2B adrenergic receptor) (Homo sapiens, UniProt P18089).
T2 sequence (P18089 1-450): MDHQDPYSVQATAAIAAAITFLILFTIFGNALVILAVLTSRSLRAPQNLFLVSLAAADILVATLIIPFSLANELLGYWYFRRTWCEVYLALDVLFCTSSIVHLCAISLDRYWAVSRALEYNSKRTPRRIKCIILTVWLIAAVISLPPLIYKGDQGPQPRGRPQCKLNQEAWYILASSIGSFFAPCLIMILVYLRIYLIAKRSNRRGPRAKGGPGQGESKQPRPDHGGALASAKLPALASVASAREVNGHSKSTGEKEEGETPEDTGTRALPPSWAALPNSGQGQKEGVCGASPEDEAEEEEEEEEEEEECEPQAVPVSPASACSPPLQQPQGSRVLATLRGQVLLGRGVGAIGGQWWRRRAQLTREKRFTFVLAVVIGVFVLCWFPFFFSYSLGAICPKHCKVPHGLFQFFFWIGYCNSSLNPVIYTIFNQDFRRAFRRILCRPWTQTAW
Briefly: DiscoverX GPCR Max Panel screen. It counts as cell-based. As to conditions: VDM-001 at 30 μM; Assay Mode Antagonist. How it is done: as §1

Data set [3] has as its target T3, ADRA2C (Adrenergic receptor alpha 2C) (Homo sapiens, UniProt P18825).
T3 sequence (P18825 1-462): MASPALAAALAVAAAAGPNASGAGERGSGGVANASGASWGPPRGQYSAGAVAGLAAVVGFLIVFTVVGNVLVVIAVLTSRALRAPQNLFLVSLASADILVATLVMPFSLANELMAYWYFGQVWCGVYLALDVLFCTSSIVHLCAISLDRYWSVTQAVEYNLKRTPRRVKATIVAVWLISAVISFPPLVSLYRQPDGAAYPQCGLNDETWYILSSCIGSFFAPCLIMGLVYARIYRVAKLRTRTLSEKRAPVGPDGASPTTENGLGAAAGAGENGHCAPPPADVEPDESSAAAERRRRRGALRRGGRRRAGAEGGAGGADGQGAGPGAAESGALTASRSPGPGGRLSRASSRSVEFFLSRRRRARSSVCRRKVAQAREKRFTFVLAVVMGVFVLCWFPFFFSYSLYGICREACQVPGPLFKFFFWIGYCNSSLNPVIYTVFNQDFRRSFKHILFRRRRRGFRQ
Description: DiscoverX GPCR Max Panel screen. It counts as cell-based. As to conditions: VDM-001 at 30 μM; Assay Mode Antagonist. How it is done:
as §1

The target in data set [4] is T4, CHRM1 (Cholinergic Muscarinic Receptor 1) (Homo sapiens, UniProt P11229).
T4 sequence (P11229 1-460): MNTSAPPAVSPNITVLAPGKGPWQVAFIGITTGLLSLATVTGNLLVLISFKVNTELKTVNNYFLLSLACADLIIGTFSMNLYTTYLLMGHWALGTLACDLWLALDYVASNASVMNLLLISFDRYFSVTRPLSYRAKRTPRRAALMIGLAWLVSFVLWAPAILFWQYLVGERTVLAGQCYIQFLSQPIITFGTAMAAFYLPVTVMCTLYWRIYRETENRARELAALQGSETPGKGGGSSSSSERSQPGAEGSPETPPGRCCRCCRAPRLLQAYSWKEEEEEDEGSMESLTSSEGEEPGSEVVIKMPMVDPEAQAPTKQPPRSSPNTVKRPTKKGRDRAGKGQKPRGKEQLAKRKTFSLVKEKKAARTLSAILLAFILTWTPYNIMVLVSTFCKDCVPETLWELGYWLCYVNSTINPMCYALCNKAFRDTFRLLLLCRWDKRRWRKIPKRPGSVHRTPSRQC
Briefly: DiscoverX GPCR Max Panel screen. It counts as cell-based. As to conditions: VDM-001 at 30 μM; Assay Mode Antagonist. Here is the method:
as §1

Data set [5] has as its target CHRM3 (Cholinergic Muscarinic Receptor 3) (Homo sapiens, UniProt P20309). Briefly: DiscoverX GPCR Max Panel screen. As to conditions: VDM-001 at 30 μM; Assay Mode Antagonist. It counts as cell-based. How it is done:
as §1

For data set [6], the target named is T5, CHRM4 (Cholinergic Muscarinic Receptor 4) (Homo sapiens, UniProt P08173).
T5 sequence (P08173 1-479): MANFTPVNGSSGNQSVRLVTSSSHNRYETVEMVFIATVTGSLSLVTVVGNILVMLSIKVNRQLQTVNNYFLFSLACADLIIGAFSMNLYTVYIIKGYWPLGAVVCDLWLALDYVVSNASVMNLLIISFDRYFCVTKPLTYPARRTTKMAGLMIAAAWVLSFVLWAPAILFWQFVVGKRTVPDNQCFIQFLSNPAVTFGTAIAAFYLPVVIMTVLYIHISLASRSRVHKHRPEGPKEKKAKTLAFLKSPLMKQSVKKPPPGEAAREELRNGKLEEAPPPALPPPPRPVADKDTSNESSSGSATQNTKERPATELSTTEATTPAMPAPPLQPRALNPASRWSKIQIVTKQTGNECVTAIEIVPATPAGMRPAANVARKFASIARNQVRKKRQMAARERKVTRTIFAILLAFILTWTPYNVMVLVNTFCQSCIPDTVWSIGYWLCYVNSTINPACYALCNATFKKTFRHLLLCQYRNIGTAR
Briefly: DiscoverX GPCR Max Panel screen. It counts as cell-based. The settings on record: VDM-001 at 30 μM; Assay Mode Antagonist. Here is the method:
as §1

The target in data set [7] is T6, CHRM5 (Cholinergic Muscarinic Receptor 5) (Homo sapiens, UniProt P08912).
T6 sequence (P08912 1-532): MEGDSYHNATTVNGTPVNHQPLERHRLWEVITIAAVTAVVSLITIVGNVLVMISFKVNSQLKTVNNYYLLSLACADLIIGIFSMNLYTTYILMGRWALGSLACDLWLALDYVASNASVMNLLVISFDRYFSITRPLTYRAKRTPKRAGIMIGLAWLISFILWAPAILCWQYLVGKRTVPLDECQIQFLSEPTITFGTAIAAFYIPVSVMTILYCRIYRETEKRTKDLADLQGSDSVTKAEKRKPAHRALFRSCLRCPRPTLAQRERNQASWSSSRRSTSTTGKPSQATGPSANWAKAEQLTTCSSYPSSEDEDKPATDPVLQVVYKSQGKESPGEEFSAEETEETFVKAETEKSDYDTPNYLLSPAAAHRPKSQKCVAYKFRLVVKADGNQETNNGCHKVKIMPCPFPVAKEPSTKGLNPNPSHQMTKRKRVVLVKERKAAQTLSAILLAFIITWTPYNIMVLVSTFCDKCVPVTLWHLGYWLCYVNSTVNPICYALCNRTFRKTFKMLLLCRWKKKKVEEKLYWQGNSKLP
Description: DiscoverX GPCR Max Panel screen. It counts as cell-based. The settings on record: VDM-001 at 30 μM; Assay Mode Antagonist. How it is done: as §1

In data set [8] the target is T7, DRD4 (Dopamine D4 receptor) (Homo sapiens, UniProt P21917).
T7 sequence (P21917 1-419): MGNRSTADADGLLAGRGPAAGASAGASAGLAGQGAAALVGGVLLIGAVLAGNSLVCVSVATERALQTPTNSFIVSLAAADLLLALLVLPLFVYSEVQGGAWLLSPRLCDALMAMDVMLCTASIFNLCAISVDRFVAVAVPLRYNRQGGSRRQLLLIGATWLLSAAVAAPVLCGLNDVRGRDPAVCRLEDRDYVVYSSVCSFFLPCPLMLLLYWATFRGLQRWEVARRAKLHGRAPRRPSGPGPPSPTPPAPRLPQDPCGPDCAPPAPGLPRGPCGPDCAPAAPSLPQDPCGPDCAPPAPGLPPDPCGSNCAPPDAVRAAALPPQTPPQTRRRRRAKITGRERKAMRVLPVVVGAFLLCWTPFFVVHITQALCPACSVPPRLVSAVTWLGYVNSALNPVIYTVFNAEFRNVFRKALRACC
Briefly: DiscoverX GPCR Max Panel screen. It counts as cell-based. As to conditions: VDM-001 at 30 μM; Assay Mode Antagonist. Here is the method: as §1

The target of data set [9] is HRH1 (Histamine H1 receptor) (Homo sapiens, UniProt P35367). Briefly: DiscoverX GPCR Max Panel screen. It counts as cell-based. The settings on record: VDM-001 at 30 μM; Assay Mode Antagonist. Here is the method:
as §1

The target of data set [10] is T8, HTR1A (Serotonin 1A receptor) (Homo sapiens, UniProt P08908).
T8 sequence (P08908 1-422): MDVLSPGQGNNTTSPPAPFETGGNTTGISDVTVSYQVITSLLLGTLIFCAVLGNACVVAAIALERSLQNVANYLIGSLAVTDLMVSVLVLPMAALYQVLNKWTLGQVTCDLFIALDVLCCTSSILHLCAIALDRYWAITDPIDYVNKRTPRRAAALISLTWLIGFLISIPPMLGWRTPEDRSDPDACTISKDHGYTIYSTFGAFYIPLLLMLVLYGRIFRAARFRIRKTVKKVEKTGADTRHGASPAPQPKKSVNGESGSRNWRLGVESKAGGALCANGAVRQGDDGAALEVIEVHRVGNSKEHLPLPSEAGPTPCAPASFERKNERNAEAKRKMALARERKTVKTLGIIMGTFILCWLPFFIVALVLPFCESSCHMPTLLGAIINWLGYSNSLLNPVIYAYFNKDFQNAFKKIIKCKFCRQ
Description: DiscoverX GPCR Max Panel screen. It counts as cell-based. As to conditions: VDM-001 at 30 μM; Assay Mode Antagonist. How it is done: as §1

Data set [11] has as its target HTR1B (Serotonin 1B receptor) (Homo sapiens, UniProt P28222). Description: DiscoverX GPCR Max Panel screen. It counts as cell-based. The settings on record: VDM-001 at 30 μM; Assay Mode Antagonist. How it is done:
as §1

The target in data set [12] is OPRL1 (Nociceptin 1 receptor) (Homo sapiens, UniProt P41146). Briefly: DiscoverX GPCR Max Panel screen. It counts as cell-based. As to conditions: VDM-001 at 30 μM; Assay Mode Antagonist. Here is the method: as §1
The target of data set [13] is OPRM1 (Mu Opiate receptor) (Homo sapiens, UniProt P35372). Description: DiscoverX GPCR Max Panel screen. It counts as cell-based. The settings on record: VDM-001 at 30 μM; Assay Mode Antagonist. How it is done: as §1
A further data set concerns the target MOR (Homo sapiens, UniProt P35372). Description: GTPgS studies. It counts as biochemical. As to conditions: read-out: IC50 from the GTPgS studies.
For the next data set, the target named is mu opioid receptors (Homo sapiens, UniProt P35372). Briefly: Receptor activity profile (stated).
The next data set concerns the target kappa receptors (Homo sapiens, UniProt P41145). Description: Receptor activity profile (stated).
The next data set addresses ORL1 receptors (Homo sapiens, UniProt P41146). Briefly: Receptor activity profile (stated).
For a further data set, the system named is Sigma sites. Description: Receptor activity profile (stated).
The subject of the next data set is morphine-dependent rats. Description: Opiate withdrawal signs in morphine-dependent rats.

These results are taken from patent US20220105081A1 (priority 2020, published 2022).

Entries after “also recorded” stand apart in the source; their conditions may differ.

OPRM1 (Mu Opiate receptor), sequence (P35372 whole entry): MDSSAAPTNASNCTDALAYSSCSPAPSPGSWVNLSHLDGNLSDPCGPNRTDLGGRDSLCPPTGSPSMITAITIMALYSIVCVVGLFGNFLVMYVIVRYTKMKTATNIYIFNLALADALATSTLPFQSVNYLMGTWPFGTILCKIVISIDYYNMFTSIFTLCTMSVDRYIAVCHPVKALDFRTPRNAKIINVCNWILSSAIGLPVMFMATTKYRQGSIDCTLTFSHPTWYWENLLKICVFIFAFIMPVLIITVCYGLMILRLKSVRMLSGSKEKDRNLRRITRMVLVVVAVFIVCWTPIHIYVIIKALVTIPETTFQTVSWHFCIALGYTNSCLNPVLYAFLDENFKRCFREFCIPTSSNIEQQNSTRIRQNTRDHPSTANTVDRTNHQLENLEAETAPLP
HRH1 (Histamine H1 receptor), sequence (P35367 whole entry): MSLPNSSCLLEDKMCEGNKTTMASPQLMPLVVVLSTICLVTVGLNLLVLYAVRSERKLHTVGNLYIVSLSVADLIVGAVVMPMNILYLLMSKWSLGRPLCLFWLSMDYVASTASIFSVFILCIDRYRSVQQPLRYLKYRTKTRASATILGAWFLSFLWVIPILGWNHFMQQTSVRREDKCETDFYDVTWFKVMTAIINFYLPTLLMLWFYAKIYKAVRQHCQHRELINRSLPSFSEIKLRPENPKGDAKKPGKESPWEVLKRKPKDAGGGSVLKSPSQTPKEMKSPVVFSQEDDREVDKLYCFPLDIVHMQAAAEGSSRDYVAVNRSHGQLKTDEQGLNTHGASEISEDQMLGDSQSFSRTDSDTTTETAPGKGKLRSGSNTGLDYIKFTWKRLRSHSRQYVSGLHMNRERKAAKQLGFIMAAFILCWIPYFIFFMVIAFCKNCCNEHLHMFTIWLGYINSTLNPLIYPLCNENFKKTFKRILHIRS
CHRM3 (Cholinergic Muscarinic Receptor 3), sequence (P20309 whole entry): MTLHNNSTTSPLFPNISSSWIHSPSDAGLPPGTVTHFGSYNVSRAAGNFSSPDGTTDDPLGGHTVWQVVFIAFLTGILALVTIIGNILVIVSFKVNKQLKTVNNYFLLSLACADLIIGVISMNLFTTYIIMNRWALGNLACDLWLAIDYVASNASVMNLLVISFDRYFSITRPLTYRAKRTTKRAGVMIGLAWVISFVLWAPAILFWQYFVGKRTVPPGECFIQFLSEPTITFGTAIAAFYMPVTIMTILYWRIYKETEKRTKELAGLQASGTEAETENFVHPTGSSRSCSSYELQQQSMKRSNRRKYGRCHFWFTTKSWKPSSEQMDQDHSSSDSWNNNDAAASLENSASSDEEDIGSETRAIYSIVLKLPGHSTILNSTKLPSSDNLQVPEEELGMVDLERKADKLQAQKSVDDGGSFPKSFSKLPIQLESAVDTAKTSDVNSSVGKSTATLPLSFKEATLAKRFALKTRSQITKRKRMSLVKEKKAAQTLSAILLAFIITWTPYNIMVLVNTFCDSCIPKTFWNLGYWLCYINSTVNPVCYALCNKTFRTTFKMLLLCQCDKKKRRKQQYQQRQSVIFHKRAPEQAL
kappa receptors, sequence (P41145 whole entry): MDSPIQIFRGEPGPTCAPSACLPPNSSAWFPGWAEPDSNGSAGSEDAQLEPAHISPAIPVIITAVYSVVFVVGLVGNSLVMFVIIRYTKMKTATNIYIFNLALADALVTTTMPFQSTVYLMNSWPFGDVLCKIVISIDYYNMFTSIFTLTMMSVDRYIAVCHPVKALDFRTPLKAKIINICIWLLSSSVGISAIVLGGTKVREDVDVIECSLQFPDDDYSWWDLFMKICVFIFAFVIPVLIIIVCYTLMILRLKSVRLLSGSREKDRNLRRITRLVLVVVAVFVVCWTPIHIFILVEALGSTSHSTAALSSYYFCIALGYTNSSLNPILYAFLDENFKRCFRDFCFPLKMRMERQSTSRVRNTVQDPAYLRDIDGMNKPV
HTR1B (Serotonin 1B receptor), sequence (P28222 whole entry): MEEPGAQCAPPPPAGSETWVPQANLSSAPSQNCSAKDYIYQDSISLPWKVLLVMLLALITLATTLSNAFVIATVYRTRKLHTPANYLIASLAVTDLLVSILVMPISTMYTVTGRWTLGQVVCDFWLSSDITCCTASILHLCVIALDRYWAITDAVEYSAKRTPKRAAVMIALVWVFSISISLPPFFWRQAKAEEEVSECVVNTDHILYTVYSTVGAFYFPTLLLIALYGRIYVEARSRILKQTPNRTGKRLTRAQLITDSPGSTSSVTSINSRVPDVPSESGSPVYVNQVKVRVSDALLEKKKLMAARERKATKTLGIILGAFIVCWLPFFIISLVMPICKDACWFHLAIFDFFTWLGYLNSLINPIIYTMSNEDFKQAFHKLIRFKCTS
ORL1 receptors, sequence (P41146 whole entry): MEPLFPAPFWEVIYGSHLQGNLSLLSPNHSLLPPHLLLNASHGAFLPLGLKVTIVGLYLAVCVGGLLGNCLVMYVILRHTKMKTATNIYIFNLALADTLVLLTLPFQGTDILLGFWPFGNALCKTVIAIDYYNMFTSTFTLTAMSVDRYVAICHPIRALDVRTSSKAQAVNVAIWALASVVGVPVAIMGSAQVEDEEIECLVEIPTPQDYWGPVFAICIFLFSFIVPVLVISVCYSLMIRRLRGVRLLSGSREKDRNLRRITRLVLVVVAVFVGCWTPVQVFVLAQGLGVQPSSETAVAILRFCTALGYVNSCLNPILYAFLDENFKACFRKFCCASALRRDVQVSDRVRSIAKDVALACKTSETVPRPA
OPRL1 (Nociceptin 1 receptor), sequence (P41146 whole entry): as above
mu opioid receptors, sequence (P35372 whole entry): as the sequence (P35372 whole entry) above
MOR, sequence (P35372 whole entry): as above

With `CCC(=O)NC1CC(C)N(CCc2ccccc2)CC1C` (stereo not drawn) [VDM-001, N-[2,5-dimethyl-1-(2-phenylethyl)piperidin-4-yl]propanamide], the Activity in data set [1] is given as 84%; in [2] it was 98%; in data set [3], 104%; in [4], 72%; in data set [5] it was 85%; in [6] it was 72%. Further, the Activity in data set [7] is 74%; in data set [8], 75%; in data set [9] it was 99%; in [10], 73%; in data set [11], 60%; in data set [12], 54%. Besides, in [13], the Activity is 87%. In addition, the IC50 on MOR stood at 30 µM. Also, the “mode of action at mu opioid receptors” value at mu opioid receptors was “partial agonist”. Moreover, at kappa receptors, the “mode of action at kappa receptors” value is given as “antagonist”. Also, the “mode of action at ORL1 receptors” value on ORL1 receptors is listed as “antagonist”. For the same molecule, the “mode of action at Sigma sites” value in the data set on Sigma sites is given as “either agonist or antagonist activity”. Further, the incidence of diarrhea result with morphine-dependent rats (20 mg/kg, equal to the control) is given as “around 1%”; in the data set with morphine-dependent rats (40 mg/kg), “less than 20%”. Further, the opiate withdrawal signs entry in the data set on morphine-dependent rats (20 or 40 mg/kg) was “minimal, if any, opiate withdrawal signs; also recorded: did not precipitate morphine withdrawal symptoms; also recorded: did not show significant withdrawal signs”.

Regarding `C=CCN1CC[C@]23c4c5ccc(O)c4O[C@H]2C(=O)CC[C@@]3(O)[C@H]1C5` [naloxone, 17-allyl-4,5a-epoxy-3,14-dihydroxymorphinan-6-one, reference compound], in the data set on morphine-dependent rats (1 mg/kg), the incidence of diarrhea entry was “over 80%” and the opiate withdrawal signs entry was “large opiate withdrawal signs”. Moreover, the opiate withdrawal signs result with morphine-dependent rats (1 mg/kg, listed as Naloxone) was “precipitated a large number of withdrawal signs”.
